The source of these data is patent US9416383B2, “Method for enhancing catalytic activity of a lipase” (University of North Carolina at Chapel Hill, priority 2007, dated 2016).

By EC50 is commonly meant the concentration giving half of the maximal effect. For orientation: IC50 means the concentration that inhibits the measured activity by half.

One series relates to PLC in MDCK cells. The note with it: ATP-stimulated, concentration dependent; cited from earlier work.
For a further series, the system named is PLC in Caco-2 cells. The conditions noted are these: ATP-stimulated, concentration dependent; cited from earlier work.
Another series deals with MDCK cell monolayers. The conditions noted are these: concentration-dependent; cited from earlier work.
The target of another series is T1, human PLCβ3 (hPLCβ3) (Homo sapiens, UniProt Q01970).
T1 construct: confirmed alkylation at up to eight cysteine residues on the full length protein; gift: laboratory of Dr. T. K. Harden, University of North Carolina
T1 sequence (Q01970 1-1234): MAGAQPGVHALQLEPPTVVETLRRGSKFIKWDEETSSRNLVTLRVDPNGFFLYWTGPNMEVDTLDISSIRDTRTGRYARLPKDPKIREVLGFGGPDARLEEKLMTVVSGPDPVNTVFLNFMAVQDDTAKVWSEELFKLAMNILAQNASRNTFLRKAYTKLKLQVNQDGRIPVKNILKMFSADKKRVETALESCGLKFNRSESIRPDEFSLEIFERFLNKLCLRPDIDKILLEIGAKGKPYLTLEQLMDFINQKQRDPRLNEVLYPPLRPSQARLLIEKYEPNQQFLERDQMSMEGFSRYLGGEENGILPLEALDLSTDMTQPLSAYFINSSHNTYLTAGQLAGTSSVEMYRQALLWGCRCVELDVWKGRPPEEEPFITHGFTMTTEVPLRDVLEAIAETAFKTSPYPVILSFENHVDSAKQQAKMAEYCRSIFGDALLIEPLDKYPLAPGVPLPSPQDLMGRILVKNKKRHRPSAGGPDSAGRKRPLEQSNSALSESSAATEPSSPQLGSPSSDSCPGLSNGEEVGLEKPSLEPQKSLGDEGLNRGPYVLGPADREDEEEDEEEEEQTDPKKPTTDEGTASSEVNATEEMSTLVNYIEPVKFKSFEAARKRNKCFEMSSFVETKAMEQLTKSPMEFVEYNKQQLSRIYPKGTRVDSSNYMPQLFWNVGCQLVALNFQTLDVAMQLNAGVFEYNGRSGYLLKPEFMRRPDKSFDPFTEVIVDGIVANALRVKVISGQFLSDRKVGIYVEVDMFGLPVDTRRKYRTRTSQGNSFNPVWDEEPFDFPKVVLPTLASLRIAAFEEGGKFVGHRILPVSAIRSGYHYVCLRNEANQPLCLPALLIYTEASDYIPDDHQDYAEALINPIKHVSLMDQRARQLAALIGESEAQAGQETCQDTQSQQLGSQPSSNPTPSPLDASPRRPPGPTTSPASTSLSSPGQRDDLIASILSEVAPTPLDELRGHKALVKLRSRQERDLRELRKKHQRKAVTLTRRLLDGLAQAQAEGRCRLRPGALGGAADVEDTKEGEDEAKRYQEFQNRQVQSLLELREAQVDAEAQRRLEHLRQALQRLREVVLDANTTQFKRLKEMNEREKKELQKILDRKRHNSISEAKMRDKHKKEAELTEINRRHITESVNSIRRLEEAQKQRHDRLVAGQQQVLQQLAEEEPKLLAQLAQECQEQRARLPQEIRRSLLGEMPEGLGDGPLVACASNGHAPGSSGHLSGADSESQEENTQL
Kind of series: PLCβ3 activity by cell free assay ([3H]-inositol phosphate formation from PIP2 in dodecylmaltoside mixed micelles). The class given is biochemical. The note with it: for effect on activity of hPLCβ3 in DDM mixed micelles: FIG. 2; for effect on U73122-induced activation of hPLCβ3: FIGS. 3 and 6B. As to the method:
Purified human PLCβ3 protein was generously provided by the laboratory of Dr. T. K. Harden (Department of Pharmacology, University of North Carolina, Chapel Hill, N.C., United States of America). […] Briefly, hot and cold phosphatidylinositol-4,5-bisphosphate (PIP2; 5 nmol), as substrate, was reconstituted in a 1 mM dodecylmaltoside solution and mixed with assay buffer containing 40 mM Hepes (pH 7.4), 480 mM KCl, 40 mM NaCl, 8 mM EGTA, 4 mM […], and 7.6 mM CaCl2. Compounds at desired concentrations and purified PLCβ3 in 1% fatty acid-free BSA and 10 mM Hepes (pH 7.0), were subsequently added to the mixture. To initiate assays, samples were moved to a 37° C. water bath and incubated for 2-10 minutes such that less than fifteen percent total substrate was hydrolyzed. At designated times, reactions were stopped by addition of 750 μl CHCl3:MeOH:HCl (40:80:1), 100 μl water, 250 μl CHCl3, and 250 μl 0.1M HCl. Samples were vortexed and centrifuged at 3000 rpm for 10 minutes at 4° C. The amount of formed [^3H]-inositol phosphates was measured by liquid scintillation counting of 500 μl of the upper phase in a Packard Tri Carb 4000 Series […].
Data are expressed as mean±SD of three experiments performed in triplicate unless otherwise indicated. Statistical significance was evaluated using unpaired Students t tests. Data were modeled using Win-non Lin (Pharsight, Mountain View, Calif., United States of America) non-linear regression analysis for determination of EC50 (PLCβ3) and IC50 values.

A further series deals with Caco-2 cell monolayers. The note with it: concentration-dependent; cited from earlier work.
The target in another series is T2, hPLCβ3 (Homo sapiens, UniProt Q01970).
T2 construct: confirmed alkylation at up to eight cysteine residues on the full length protein; gift: laboratory of Dr. T. K. Harden, University of North Carolina
T2 sequence (Q01970 1-1234): T1 sequence (Q01970 1-1234)
Kind of series: Mass spectrometry of intact hPLCβ3 and LC/MS/MS peptide sequencing (alkylation). The note with it: FIG. 6A.

“Also recorded” adds a separate entry of the source.

As for `COc1ccc2c(c1)CC[C@@H]1[C@@H]2CC[C@]2(C)[C@@H](NCCCCCCN3C(=O)C=CC3=O)CC[C@@H]12` [U73122], in the series on PLC in MDCK cells, the “inhibition of PLC activity in MDCK cells” value is given as “inhibits”. Further, in the series on PLC in Caco-2 cells, the “inhibition of PLC activity in Caco-2 cells” value was “inhibits”. In the series on MDCK cell monolayers, the “effect on tight junction permeability, MDCK monolayers” value is “enhances”. At human PLCβ3 (hPLCβ3), this molecule came in with an EC50 of 14 ± 5 µM. Besides, at human PLCβ3 (hPLCβ3) (DDM mixed micelles), the “effect on activity of hPLCβ3 in DDM mixed micelles” value (from here on “effect on activity of hPLCβ3”) is recorded as “increases the activity”. Also, the “time dependence of hPLCβ3 activation” value at human PLCβ3 (hPLCβ3) (FIG. 4) is on record as “time dependent”. The “effect on tight junction permeability, Caco-2 monolayers” value with Caco-2 cell monolayers was “enhances”.
On to `COc1ccc2c(c1)CC[C@@H]1[C@@H]2CC[C@]2(C)[C@@H](NCCCCCCN3C(=O)CCC3=O)CC[C@@H]12` [U73343], for which the “inhibition of PLC activity in MDCK cells” value in the series with PLC in MDCK cells is “does not”. Further, in the series with PLC in Caco-2 cells, the “inhibition of PLC activity in Caco-2 cells” value is reported as “does not”. For the same molecule, at human PLCβ3 (hPLCβ3) (DDM mixed micelles), the “effect on activity of hPLCβ3” value was “do not”.
Take `CCN1C(=O)C=CC1=O` [NEM, N-ethylmaleimide]: at human PLCβ3 (hPLCβ3) (DDM mixed micelles), the “effect on activity of hPLCβ3” value is “do not; also recorded: inability to activate” and the “effect on U73122-induced activation of hPLCβ3” value is recorded as “inhibits”. For the same molecule, the “alkylation of hPLCβ3” value on hPLCβ3 is listed as “alkylates hPLCβ3 at multiple amino acid residues”.
Take `N[C@@H](CS)C(=O)O` [cysteine]: the “effect on U73122-induced activation of hPLCβ3” value on human PLCβ3 (hPLCβ3) (DDM mixed micelles) was “inhibit”.
In the case of `N[C@@H](CCC(=O)N[C@@H](CS)C(=O)NCC(=O)O)C(=O)O` [glutathione], at human PLCβ3 (hPLCβ3) (DDM mixed micelles), the “effect on U73122-induced activation of hPLCβ3” value is on record as “inhibits”. Further, the IC50 on human PLCβ3 (hPLCβ3) (DDM mixed micelles, mean±SD, read-out: IC50 for inhibition of U73122-induced activation of hPLCβ3) came out at 38 ± 16 µM.
